Data on 16 molecules can be found in US20230416261A1, “ETHANEDIAMINE-HETEROCYCLE DERIVATIVES AS INHIBITORS OF PROTEIN ARGININE METHYLTRANSFERASES” (Board of Regents, The University of Texas System, priority 2021, published 2023).

The target in assay [1] is T1, PRMT1 (Homo sapiens, UniProt Q99873). Put plainly: PRMT1 Enzymatic Assay (LANCE TR-FRET, methylation of histone H4 at Arg3). Type of assay: biochemical. Also on record: purchased SignalChem P365-380G. The following applies: PRMT1 1.5 nM, SAM 1 μM, biotinylated histone H4 (1-21) 25 nM; read-out: PRMT-1 IC50. In short, it runs like this:
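PRMT1 (1.5 nM) preincubated 15 min with compound at room temperature, then reacted 1 h with 1 μM SAM and 25 nM biotinylated histone H4 (1-21) in 50 mM Hepes pH 8, 1 mM TCEP, 0.003% Tween-20. H4R3me detected by TR-FRET (665/620 nm ratio); IC50 from four-parameter logistic fit.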

Another assay deals with DOHH2 cells. Put plainly: DOHH2 Long Term Phenotypic Assay (7 days, Cell Titer-Glo viability). Type of assay: cell-based. As to conditions: Homo sapiens, DOHH-2, 168 h, Cell Titer-Glo 2.0. The gist of the method:
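DOHH2 lymphoma cells (250 per well) in RPMI-1640 with 10% FBS were exposed to 1:3 serially diluted compounds for 7 days at 37 °C, 5% CO2. Viability was read by CellTiter-Glo 2.0 luminescence, and IC50 values came from four-parameter logistic fits.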
(In general: Cellular ATP, detected with luciferase, serves as a proxy for viable cell number.)

Assay [2] deals with T1, PRMT1. Put plainly: PRMT1 RKO Cellular Target Engagement Assay (In-Cell Western, asymmetric di-methyl arginine). The following applies: RKO cells, 48 hr compound incubation; read-out: RKO IC50 (PRMT-1 Target Engagement). Type of assay: cell-based. In short, it runs like this:
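RKO cells (1,000/well) received 1:3 serially diluted compound for 48 h at 37 °C, then were fixed, permeabilised and immunostained for asymmetric di-methyl arginine by In-Cell Western. The 800 nm antibody signal was normalised to CellTag 700 nm; IC50 from four-parameter logistic fit.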

The test system of another assay is PATC53 cells. Put plainly: PATC53 Long Term Phenotypic Assay (14 days, crystal violet viability). Type of assay: cell-based. As to conditions: 336 h. The protocol: PATC53 cells were derived from the PATC53 PDX model and kindly provided by Jason Fleming (MDACC). The cells were routinely maintained in DMEM/F12 Medium (Corning, Catalog #10-090-CV) supplemented with 10% fetal bovine serum (Sigma, Catalog #F2442), 100 units/mL penicillin and 100 μg/mL streptomycin (Gibco, Catalog #15140-122) in a humidified incubator (37° C., 5% CO2). Prior to the assay, cells were seeded onto a 12-well, TC treated plate (Corning, catalog #353043) at a density of 250 cells per well in a volume of 1 mL. The plate was incubated for 24 hours at 37° C. and 5% CO2. Stock solutions of the test compounds were prepared in 100% DMSO (Sigma, Catalog #D2650) and serially diluted 1:3 using 100% DMSO. Compounds were additionally diluted 1:100 in culture medium, and 110 μL/well was transferred to the tissue culture plate. Following the compound addition, the plate was incubated at 37° C. and 5% CO2 for 14 days. Viability was then assessed by crystal violet staining (Fisher Scientific, Catalog #C58125) as follows: 450 μL of crystal violet (1 mg/mL) was added to the plate for a 10 minute incubation at room temperature. After incubation, the plate was washed 3× with distilled water to remove excess dye and allowed to dry overnight. The crystal violet was solubilized using 10% HOAc (500 μL) for 10 minutes at room temperature, while shaking. A volume of 100 μL was then transferred to a 96-well SpectraPlate (Perkin Elmer, Catalog #6005649). Absorbance at 590 nm was measured with a BioTek Synergy Neo. IC50 values were calculated using a four-parameter logistic curve fit using Genedata Screener software.

The structures appear in SMILES notation.

One may read the IC50 as the concentration that gives 50% inhibition.

T1 sequence (Q99873 whole entry): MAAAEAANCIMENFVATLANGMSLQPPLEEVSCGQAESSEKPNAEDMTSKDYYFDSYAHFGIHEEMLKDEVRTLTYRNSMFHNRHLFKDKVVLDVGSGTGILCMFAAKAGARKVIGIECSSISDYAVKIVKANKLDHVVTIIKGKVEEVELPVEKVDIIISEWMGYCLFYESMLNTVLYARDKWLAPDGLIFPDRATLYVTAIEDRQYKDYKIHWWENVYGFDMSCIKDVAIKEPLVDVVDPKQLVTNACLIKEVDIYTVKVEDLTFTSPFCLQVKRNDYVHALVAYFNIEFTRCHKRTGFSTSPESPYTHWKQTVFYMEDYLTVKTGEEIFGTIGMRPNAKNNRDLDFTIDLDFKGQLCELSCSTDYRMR

For the molecule `CCOCC1(COCC)CCC(c2c(CN(C)CCNC)nn3c2CN(C(=O)C2CC2)CC3)CC1` [Example 4, (3-(4,4-bis(ethoxymethyl)-cyclohexyl)-2-((methyl(2-(methylamino)ethyl)amino)-methyl)-6,7-dihydropyrazolo-[1,5-a]pyrazin-5(4H)-yl)-(cyclopropyl)methanone], the IC50 at PRMT1 [1] came out at 48 nM; with DOHH2 cells it was 47 nM; at PRMT1 [2], 110 nM; in the assay with PATC53 cells it was 1260 nM.

For `CNCCN(C)Cc1nn2c(c1C1CCC(COC)(COC)CC1)CN(C(=O)C1CC1)CC2` [Example 5, (3-(4,4-bis(methoxymethyl)-cyclohexyl)-2-((methyl(2-(methylamino)ethyl)amino)-methyl)-6,7-dihydropyrazolo-[1,5-a]pyrazin-5(4H)-yl)-(cyclopropyl)methanone], the IC50 at PRMT1 [1] turned out to be 34 nM; with DOHH2 cells it was 81 nM; at PRMT1 [2] it was 121 nM; with PATC53 cells, 58 nM.

`COCC1(COC)CCC(c2c(CN(C)CCN)nn3c2CN(C(=O)C2CC2)CC3)CC1` [Example 6, (2-(((2-aminoethyl)(methyl)-amino)methyl)-3-(4,4-bis-(methoxymethyl)cyclohexyl)-6,7-dihydropyrazolo[1,5-a]-pyrazin-5(4H)-yl)-(cyclopropyl)methanone]: the IC50 on PRMT1 [1] turned out to be 14 nM; in the assay with DOHH2 cells, 138 nM; at PRMT1 [2], 361 nM; in the assay on PATC53 cells it was 147 nM.

`CNCCN(C)Cc1nn2c(c1C1CCC(COC)(COC)CC1)CN(C(=O)C(C)(C)C)CC2` [Example 8, 1-(3-(4,4-bis(methoxy-methyl)cyclohexyl)-2-((methyl(2-(methylamino)-ethyl)amino)methyl)-6,7-dihydropyrazolo[1,5-a]-pyrazin-5(4H)-yl)-2,2-dimethylpropan-1-one]: the IC50 at PRMT1 [1] turned out to be 36 nM; in the assay with DOHH2 cells, 67 nM; at PRMT1 [2], 913 nM; with PATC53 cells, 100 nM.

Take `COCC1(COC)CCC(c2c(CN(C)CCN)nn3c2CN(C(=O)C2CCC2)CC3)CC1` [Example 11, (2-(((2-aminoethyl)(methyl)-amino)methyl)-3-(4,4-bis-(methoxymethyl)cyclohexyl)-6,7-dihydropyrazolo[1,5-a]-pyrazin-5(4H)-yl)-(cyclobutyl)methanone]: the IC50 was 16 nM on PRMT1 [1], 111 nM with DOHH2 cells, 1210 nM at PRMT1 [2] and 70 nM in the assay with PATC53 cells.

Consider `CNCCN(C)Cc1nn2c(c1C1CCC(COC)(COC)CC1)CN(C(=O)C1(F)CC1)CC2` [Example 13, (3-(4,4-bis(methoxymethyl)-cyclohexyl)-2-((methyl(2-(methylamino)ethyl)amino)-methyl)-6,7-dihydropyrazolo-[1,5-a]pyrazin-5(4H)-yl)(1-fluorocyclopropyl)methanone], for which the IC50 on PRMT1 [1] was determined as 56 nM; in the assay with DOHH2 cells, 150 nM; on PRMT1 [2], 225 nM; with PATC53 cells, 38 nM.

As for `CNCCN(C)Cc1nn2c(c1C1CCC(COC)(COC)CC1)CN(C(=O)C1(OC)CC1)CC2` [Example 14, (3-(4,4-bis(methoxymethyl)-cyclohexyl)-2-((methyl(2-(methylamino)ethyl)amino)-methyl)-6,7-dihydropyrazolo-[1,5-a]pyrazin-5(4H)-yl)(1-methoxycyclopropyl)-methanone], the IC50 on PRMT1 [1] was 94 nM; in the assay on DOHH2 cells, 211 nM; at PRMT1 [2], 124 nM; in the assay with PATC53 cells, 478 nM.

In the case of `CNCCN(C)Cc1nn2c(c1C1CCC(COC)(COC)CC1)CN(C(=O)C1(C#N)CC1)CC2` [Example 15, 1-(3-(4,4-bis(methoxy-methyl)cyclohexyl)-2-((methyl(2-(methylamino)-ethyl)amino)methyl)-4,5,6,7-tetrahydropyrazolo[1,5-a]-pyrazine-5-carbonyl)cyclopropane-1-carbonitrile], the IC50 at PRMT1 [1] stood at 71 nM; in the assay on DOHH2 cells, 211 nM; on PRMT1 [2], 370 nM; with PATC53 cells, 732 nM.

On to `CNCCN(C)Cc1nn2c(c1C1CCC(COC)(COC)CC1)CN(C(=O)C1(C)COC1)CC2` [Example 16, (3-(4,4-bis(methoxymethyl)-cyclohexyl)-2-((methyl(2-(methylamino)ethyl)amino)-methyl)-6,7-dihydropyrazolo-[1,5-a]pyrazin-5(4H)-yl)(3-methyloxetan-3-yl)methanone], for which the IC50 on PRMT1 [1] is 64 nM; in the assay with DOHH2 cells, 160 nM; at PRMT1 [2], 370 nM; in the assay on PATC53 cells, 209 nM.

With `CNCCN(C)Cc1nn2c(c1C1CCC(COC)(COC)CC1)CN(C(=O)C1(C(F)(F)F)CC1)CC2` [Example 18, (3-(4,4-bis(methoxymethyl)-cyclohexyl)-2-((methyl(2-(methylamino)ethyl)amino)-methyl)-6,7-dihydropyrazolo-[1,5-a]pyrazin-5(4H)-yl)(1-(trifluoro-methyl)cyclopropyl)-methanone], the IC50 at PRMT1 [1] amounted to 60 nM; with DOHH2 cells, 142 nM; on PRMT1 [2] it was 137 nM; in the assay with PATC53 cells, 48 nM.

Turning to `CNCCN(C)Cc1nn2c(c1C1CCC(COC)(COC)CC1)CN(C(=O)C1(C)CCC1)CC2` [Example 19, (3-(4,4-bis(methoxymethyl)-cyclohexyl)-2-((methyl(2-(methylamino)ethyl)amino)-methyl)-6,7-dihydropyrazolo-[1,5-a]pyrazin-5(4H)-yl)(1-methylcyclobutyl)methanone], the IC50 at PRMT1 [1] worked out at 52 nM; in the assay on DOHH2 cells, 87 nM; at PRMT1 [2], 214 nM; in the assay with PATC53 cells, 37 nM.

Turning to `CNCCN(C)Cc1nn2c(c1C1CCC(COC)(COC)CC1)CN(C(=O)C13CC(C1)C3)CC2` [Example 20, bicyclo[1.1.1]pentan-1-yl(3-(4,4-bis(methoxymethyl)-cyclohexyl)-2-((methyl(2-(methylamino)ethyl)amino)-methyl)-6,7-dihydropyrazolo-[1,5-a]pyrazin-5(4H)-yl)-methanone], the IC50 was 62 nM at PRMT1 [1], 103 nM in the assay with DOHH2 cells, 239 nM at PRMT1 [2] and 50 nM in the assay on PATC53 cells.

Regarding `CNCCN(C)Cc1nn2c(c1C1CCC(COC)(COC)CC1)CN(C(=O)C13CC(F)(C1)C3)CC2` [Example 21, (3-(4,4-bis(methoxymethyl)-cyclohexyl)-2-((methyl(2-(methylamino)ethyl)amino)-methyl)-6,7-dihydropyrazolo-[1,5-a]pyrazin-5(4H)-yl)(3-fluorobicyclo[1.1.1]pentan-1-yl)methanone], the IC50 at PRMT1 [1] was determined as 53 nM; in the assay with DOHH2 cells, 96 nM; on PRMT1 [2], 185 nM; in the assay with PATC53 cells, 68 nM.

Regarding `CNCCN(C)Cc1nn2c(c1C1CCC(COC)(COC)CC1)CN(C(=O)C1(C(C)(F)F)COC1)CC2` [Example 23, (3-(4,4-bis(methoxymethyl)-cyclohexyl)-2-((methyl(2-(methylamino)ethyl)amino)-methyl)-6,7-dihydropyrazolo-[1,5-a]pyrazin-5(4H)-yl)(3-(1,1-difluoroethyl)oxetan-3-yl)methanone], the IC50 on PRMT1 [1] turned out to be 137 nM; in the assay with DOHH2 cells, 147 nM; on PRMT1 [2], 382 nM; with PATC53 cells, 264 nM.

`CNCCN(C)Cc1nn2c(c1C1CCC(COC)(COC)CC1)CN(C(=O)C(C)C)CC2` [Example 24, 1-(3-(4,4-bis(methoxy-methyl)cyclohexyl)-2-((methyl(2-(methylamino)-ethyl)amino)methyl)-6,7-dihydropyrazolo[1,5-a]-pyrazin-5(4H)-yl)-2-methylpropan-1-one]: the IC50 at PRMT1 [1] worked out at 76 nM; in the assay on DOHH2 cells, 103 nM; at PRMT1 [2], 254 nM; in the assay with PATC53 cells, 69 nM.

Regarding `CNCCN(C)Cc1nn2c(c1C1CCC(COC)(COC)CC1)CN(C(=O)CC1CCOCC1)CC2` [Example 34, 1-(3-(4,4-bis(methoxy-methyl)cyclohexyl)-2-((methyl(2-(methylamino)-ethyl)amino)methyl)-6,7-dihydropyrazolo[1,5-a]-pyrazin-5(4H)-yl)-2-(tetrahydro-2H-pyran-4-yl)ethan-1-one], the IC50 stood at 124 nM at PRMT1 [1], 198 nM with DOHH2 cells and 642 nM with PATC53 cells.
